According to patent US7875614B2, “Phthalazinones” (Merck Patent GmbH, priority 2005, dated 2011):

Tested on: cells
Assay: cell cycle effect (G2/M)
Format: cell-based
Details: cell line not stated; "Experiments show that"

N=C(N)c1ccc(OCCCCCOc2ccc(C(=N)N)cc2)cc1 [pentamidine]
effect on cell cycle: maintain cells in the G2/M cell cycle
